Source: patent publication US6426068B1, “Therapeutic uses of heterologous superoxide dismutase (HSD), and method for selecting said HSD” (Fractales Biotech, priority 1998, dated 2002)

Experiments:
human macrophages [1] = experiment: Apoptosis of human macrophages with β-amyloid or MPTP; format: cell-based; settings: 10 μg/ml, 48 hours, FIGS. 12 and 13
human macrophages [2] = experiment: TNF-α production by human macrophages with β-amyloid or MPTP; settings: 10 μg/ml, 48 hours, FIGS. 12 and 13
Experimental: The CLCs are isolated from 23 healthy individuals, under the same conditions as those set out above. The adherent cell populations are obtained by incubating the CLCs (1×10^7 cells/ml) either in Petri dishes (Nunc) or in 6-well culture plates (Nunc) for 30 min at 37° C. in an RPMI 1640 medium supplemented with foetal calf serum at 10% (v/v) . The monocytes are then recovered by scraping the plates after adding a cold solution of PBS containing 1 mM EDTA. Cell preparations which comprise more than 85% of viable macrophages are estimated by Trypan blue exclusion and staining with a nonspecific esterase.
The macrophages are cultured at a final concentration of 2×10^6 cells/ml in 12- or 24-well plastic culture plates (Nunc) and in an Iscove medium supplemented with 100 U/ml of penicillin, 100 μg/ml of streptomycin and 5% of foetal calf serum.
The cells are incubated for 48 hours at 37° C. in a humid atmosphere (100%) containing 95% air and 5% CO2, in the presence of absence of 10 μg/ml of β-amyloid or MPTP.
The cell supernatants are recovered for measuring the TNF and the nitrites, while apoptosis is evaluated directly on the cells.

[3] = test system: glutathione peroxidase (GPx), Mn—SOD, inducible NO synthase (iNOs); experiment: Immuno-redox activity of HSD1/anti-HSD1 immune complexes in U937 and U1 cells; settings: noninfected U937 and U1 cells; HSD1 10 μg/ml (30 U/ml), anti-HSD1 antibodies 10 μg/ml; FIG. 16
Experimental: U937 cells which are chronically infected with HIV-1 (U1 cells), and which have a low p24 production level (<250 pg/10^5 cells/ml in a 3-day supernatant) are cultured in an RPMI medium supplemented with L-glutamine, penicillin, streptomycin and foetal calf serum at 10% (Gibco products). They are used for the production of p24, and to evaluate apoptosis.

Mn—SOD [4] = experiment: Endogenous SOD (dismutase) activity of U937 cells after exogenous SOD; format: cell-based, human; settings: SOD 30 U/ml, FIG. 2
Experimental: U937 cells, untreated or treated with HIV-Tat protein, in the presence or absence of the abovementioned SODs, are lysed in a detergent buffer comprising: 10 mM Tris-HCl pH 7.4, 0.1% of SDS, 1% of Nonidet P-40, 10 μg/ml of leupeptin, 100 μg/ml of PMSF and 2 μg/ml of aprotinin, by heating at 85° C. for 5 min. The lysate is then briefly sonicated (3×30 sec).
The total superoxide dismutase activity is measured on the sonicated lysates obtained as described above by its capacity to inhibit the reduction of ferrocytochrome c by the superoxide radicals produced by the xanthin oxidase/xanthine system (McCord. J. M., 1969, J. Biol. Chem. 244, 6049). One unit of superoxide dismutase is defined as the amount which inhibits 50% of the reduction of cytochrome c at room temperature and at pH 7.8.

[5] = test system: glutathione peroxidase (Gpx); experiment: Glutathione peroxidase transcription in U937 cells (RT-PCR); settings: FIG. 3
Experimental: The human promonocytic leukaemia cell line U937 is cultured at a final concentration of 2×10^5 cells/ml in an Iscove medium enriched with 100 U/ml of penicillin, 100 μg/ml of streptomycin and 5% of foetal calf serum, in the presence (activated) or absence (control) of 10 μg/ml of HIV-Tat protein.
After stimulation and treatment with various sources and concentrations of SOD, the U937 cells are harvested in a phosphate-buffered cold physiological saline, and counted. The total RNA is extracted by standard techniques (Chomczynski. P., 1987, Anal. Biochem. 162, 156), in 1 ml of TRIzol reagent (Life Technologies ≠15596), according to the manufacturer's instructions. After its extraction, the RNA is precipitated with isopropyl alcohol, and the pellets are washed in 70% ethanol and air dried. The dried pellets are resuspended in 50 μl of 0.5 mM EDTA, pH 8, and quantified by spectrophotometry. […]
The amplification program comprises: five cycles comprising 60 sec. at 92° C., 60 sec. at 58° C. and 60 sec. at 74° C., followed by 25 cycles comprising 30 sec. at 92° C., 60 sec. at 60° C. and 60 sec. at 74° C., and to finish, the temperature is kept at 74° C. for another 3 minutes. Positive PCR amplifications are then determined by an electrophoresis on 1.2% agarose gel in 0.5×TAE buffer. […]

Mn—SOD [6] = experiment: Endogenous SOD expression in U937 cells (SDS-PAGE / immunoblot); format: cell-based, human; settings: HIV-Tat activated U937 cells (10 μg/ml Tat); SOD 30 U/ml, 24 hours; FIG. 1
[7] = test system: inflammation induced with carrageenans; experiment: Rat model of inflammation induced with carrageenans; format: in vivo
[8] = test system: inflammation induced with adriamycin; experiment: Rat model of inflammation induced with adriamycin; format: in vivo

Molecule: CN1CC=C(c2ccccc2)CC1 [MPTP]
- death of macrophages by apoptosis (human macrophages [1]): induce their death by apoptosis
- production of TNF-α by macrophages (human macrophages [2]): stimulate the production of TNF-α

Molecule: HSD1: bovine SOD (heterologous), Sigma, St Louis, Mo.
- expression of glutathione peroxidase (GPx), Mn—SOD and inducible NO synthase (iNOs) [3]: stimulate the expression
- lifting of HIV-Tat protein-induced inhibition of Mn—SOD expression (endogenous SOD activity) (Mn—SOD [4]): can be lifted

Molecule: HuSOD: recombinant human Cu/Zn SOD, homologous comparator
- Gpx transcription [5]: does not enable it
- Mn—SOD expression (Mn—SOD [6]): remains undetectable
- lifting of HIV-Tat protein-induced inhibition of Mn—SOD expression (endogenous SOD activity) (Mn—SOD [4]): not lifted

Molecule: bovine Cu—SOD: Cu/Zn—SOD of bovine origin
- anti-inflammatory activity (rank order of SODs) [7]: Mn—SOD of E. coli>bovine Cu—SOD>human Cu—SOD>yeast Cu—SOD>plant Cu—SOD
- anti-inflammatory activity (rank order of SODs) [8]: bovine Cu—SOD>Mn—SOD of E. coli

Molecule: human Cu—SOD: human Cu—SOD
- anti-inflammatory activity (rank order of SODs) [7]: Mn—SOD of E. coli>bovine Cu—SOD>human Cu—SOD>yeast Cu—SOD>plant Cu—SOD

Molecule: rat Cu—SOD: rat (homologous) Cu—SOD
- anti-inflammatory activity (rank order of SODs) [7]: significant pro-inflammatory activity
- anti-inflammatory activity (rank order of SODs) [8]: totally inactive

Molecule: β-amyloid
- death of macrophages by apoptosis (human macrophages [1]): induce their death by apoptosis
- production of TNF-α by macrophages (human macrophages [2]): stimulate the production of TNF-α

B1: Mn—SOD of E. coli: manganese SOD of E. coli (protein, UniProt P00448 2-206, looked up)
Superoxide dismutase [Mn]: SYTLPSLPYAYDALEPHFDKQTMEIHHTKHHQTYVNNANAALESLPEFANLPVEELITKLDQLPADKKTVLRNNAGGHANHSLFWKGLKKGTTLQGDLKAAIERDFGSVDNFKAEFEKAAASRFGSGWAWLVLKGDKLAVVSTANQDSPLMGEAISGASGFPIMGLDVWEHAYYLKFQNRRPDYIKEFWNVVNWDEAAARFAAKK
- anti-inflammatory activity (rank order of SODs) [7]: Mn—SOD of E. coli>bovine Cu—SOD>human Cu—SOD>yeast Cu—SOD>plant Cu—SOD
- anti-inflammatory activity (rank order of SODs) [8]: bovine Cu—SOD>Mn—SOD of E. coli

B2: yeast Cu—SOD: yeast Cu—SOD (protein, UniProt P00445 2-154, looked up)
Superoxide dismutase [Cu-Zn]: VQAVAVLKGDAGVSGVVKFEQASESEPTTVSYEIAGNSPNAERGFHIHEFGDATNGCVSAGPHFNPFKKTHGAPTDEVRHVGDMGNVKTDENGVAKGSFKDSLIKLIGPTSVVGRSVVIHAGQDDLGKGDTEESLKTGNAGPRPACGVIGLTN
- anti-inflammatory activity (rank order of SODs) [7]: Mn—SOD of E. coli>bovine Cu—SOD>human Cu—SOD>yeast Cu—SOD>plant Cu—SOD
- anti-inflammatory activity (rank order of SODs) [8]: generates a pro-inflammatory response
